Laboratory results: patent publication US20220016102A1, “ER PROTEIN REGULATORS AND USE THEREOF” (ShanghaiTech University, priority 2018, published 2022)

Each compound was assayed against T1, ER protein (Homo sapiens, UniProt P03372) (assay: Western blotting analysis of ER protein degradation in T47D cell line). Details: degradation of ER protein, T47D cells, drug treatment for 16 hours, Western blot gray values vs DMSO control; read-out: DC50 (nM)/T47Dcell line.
T1 sequence (P03372 1-595): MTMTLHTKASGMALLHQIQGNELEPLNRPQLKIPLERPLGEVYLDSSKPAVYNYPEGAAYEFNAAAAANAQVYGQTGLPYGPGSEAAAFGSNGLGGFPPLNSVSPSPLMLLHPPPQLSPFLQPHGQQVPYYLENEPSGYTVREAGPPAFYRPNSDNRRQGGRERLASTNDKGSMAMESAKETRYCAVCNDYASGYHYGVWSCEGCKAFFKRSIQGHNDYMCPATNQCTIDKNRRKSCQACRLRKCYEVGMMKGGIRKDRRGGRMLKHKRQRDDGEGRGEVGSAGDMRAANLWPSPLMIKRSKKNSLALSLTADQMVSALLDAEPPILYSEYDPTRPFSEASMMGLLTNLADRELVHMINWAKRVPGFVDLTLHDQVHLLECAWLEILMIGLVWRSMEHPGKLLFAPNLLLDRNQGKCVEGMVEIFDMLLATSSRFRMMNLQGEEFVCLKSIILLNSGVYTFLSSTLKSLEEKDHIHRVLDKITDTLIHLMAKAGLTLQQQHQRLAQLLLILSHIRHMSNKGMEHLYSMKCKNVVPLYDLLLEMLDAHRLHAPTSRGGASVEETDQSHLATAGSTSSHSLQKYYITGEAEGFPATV
Format: cell-based
Design: western blotting detection of the level of intracellular ER protein; endogenous in cells; host or cells: T47D
Description: T47D cells were cultured in an incubator with 5% CO2 at 37° C. Complete medium was RPMI1640 supplemented with 10% Foetal bovine serum (FBS), 100 U/ml Penicillin and Streptomycin, and 0.77 μg/mL recombinant human insulin. Western blotting analysis of T47D cell line: • Cells were plated in a 24-well plate at a cell seeding […] of 1.5×10^5 cells/mL, with 1 ml cell suspensions per well. • After 24 h the cells were adherent, and the cells in each well were treated with 1 μL a certain concentration of ER protein regulators of the present disclosure. […] Afterwards, the membranes were block by using the Blocking Buffer, and the antibody incubation and development were performed. (The above procedures were all based on the antibody product manual of the manufacturer) DC50 value (the drug concentration required for degrading proteins by 50%, abbreviated as DC50) reads method: comparing the gray values of the Western blotting bands for the drug treatment with the gray values of the Western blotting band for the DMSO control, and reading the drug concentration range corresponding to the gray value of the Western blotting bands for the drug treatment which is equal to half of the gray value of the Western blotting band for the DMSO control. DC50 value could also be calculated as follows: using software ImageJ to quantify the gray values of the Western blotting bands for the drug treatment, fitting the relationship curve between drug concentrations and gray values, and from the fitted curve, calculating the drug concentration corresponding to half of the gray value of the Western blotting band for the DMSO control.

DC50 | SMILES
< 50 nM | Cc1ncsc1-c1ccc(CNC(=O)[C@@H]2C[C@@H](O)CN2C(=O)[C@@H](NC(=O)CCOCCOCCOCCOCCC(=O)N(C)CCOc2ccc(/C(=C(/CCCl)c3ccccc3)c3ccccc3)cc2)C(C)(C)C)cc1 [SIAIS180025, N1-(2-(4-((Z)-4-chloro-1,2-diphenylbut-1-en-1-yl)phenoxy)ethyl)-N16-((S)-1-((2S,4R)-4-hydroxy-2-((4-(4-methylthiazol-5-yl)benzyl)carbamoyl)pyrrolidin-1-yl)-3,3-dimethyl-1-oxobutan-2-yl)-N1-methyl-4,7,10,13-tetraoxahexadecanediamide]
< 200 nM | Cc1ncsc1-c1ccc(CNC(=O)[C@@H]2C[C@@H](O)CN2C(=O)[C@@H](NC(=O)CCN2CCN(CCC(=O)NCCOc3ccc(C(=C(CCCl)c4ccccc4)c4ccc(O)cc4)cc3)CC2)C(C)(C)C)cc1 [SIAIS208107, (2S,4R)-1-((S)-2-(3-(4-(3-((2-(4-(4-chloro-1-(4-hydroxyphenyl)-2-phenylbut-1-en-1-yl)phenoxy)ethyl)amino)-3-oxopropyl)piperazin-1-yl)propanamido)-3,3-dimethylbutanoyl)-4-hydroxy-N-(4-(4-methylthiazol-5-yl)benzyl)pyrrolidine-2-carboxamide]
< 50 nM | Cc1ncsc1-c1ccc(CNC(=O)[C@@H]2C[C@@H](O)CN2C(=O)[C@@H](NC(=O)CCOCCOCCOCCOCCOCCC(=O)N(C)CCOc2ccc(/C(=C(/CCCl)c3ccccc3)c3ccccc3)cc2)C(C)(C)C)cc1 [SIAIS180022, N1-(2-(4-((Z)-4-chloro-1,2-diphenylbut-1-en-1-yl)phenoxy)ethyl)-N19-((S)-1-((2S,4R)-4-hydroxy-2-((4-(4-methylthiazol-5-yl)benzyl)carbamoyl)pyrrolidin-1-yl)-3,3-dimethyl-1-oxobutan-2-yl)-N1-methyl-4,7,10,13,16-pentaoxanonadecanediamide]
< 100 nM | O=C(CCCCCCNc1cccc2c1C(=O)N(C1CCC(=O)NC1=O)C2=O)NCCOc1ccc(C(=C(CCCl)c2ccccc2)c2ccc(O)cc2)cc1 (stereo not drawn) [SIAIS208145, N-(2-(4-(4-chloro-1-(4-hydroxyphenyl)-2-phenylbut-1-en-1-yl)phenoxy)ethyl)-7-((2-(2,6-dioxopiperidin-3-yl)-1,3-dioxoisoindolin-4-yl)amino)heptanamide]
50 nM | O=C(CCCCCCNc1cccc2c1CN(C1CCC(=O)NC1=O)C2=O)NCCOc1ccc(C(=C(CCCl)c2ccccc2)c2ccc(O)cc2)cc1 (stereo not drawn) [SIAIS251033, N-(2-(4-(4-chloro-1-(4-hydroxyphenyl)-2-phenylbut-1-en-1-yl)phenoxy)ethyl)-7-((2-(2,6-dioxopiperidin-3-yl)-1-oxoisoindolin-4-yl)amino)heptanamide]
< 200 nM | Cc1ncsc1-c1ccc(CNC(=O)[C@@H]2C[C@@H](O)CN2C(=O)[C@@H](NC(=O)CCCCCCCC(=O)N(C)CCOc2ccc(/C(=C(/CCCl)c3ccccc3)c3ccccc3)cc2)C(C)(C)C)cc1 [SIAIS180035, N1-(2-(4-((Z)-4-chloro-1,2-diphenylbut-1-en-1-yl)phenoxy)ethyl)-N9-((S)-1-((2S,4R)-4-hydroxy-2-((4-(4-methylthiazol-5-yl)benzyl)carbamoyl)pyrrolidin-1-yl)-3,3-dimethyl-1-oxobutan-2-yl)-N1-methylnonanediamide]
< 50 nM | Cc1ncsc1-c1ccc(CNC(=O)[C@@H]2C[C@@H](O)CN2C(=O)[C@@H](NC(=O)CCCCCCCCC(=O)N2CCN(CCOc3ccc(C(=C(CCCl)c4ccccc4)c4ccc(O)cc4)cc3)CC2)C(C)(C)C)cc1 [SIAIS251047, (2S,4R)-1-((S)-2-(10-(4-(2-(4-(4-chloro-1-(4-hydroxyphenyl)-2-phenylbut-1-en-1-yl)phenoxy)ethyl)piperazin-1-yl)-10-oxodecanamido)-3,3-dimethylbutanoyl)-4-hydroxy-N-(4-(4-methylthiazol-5-yl)benzyl)pyrrolidine-2-carboxamide]
< 50 nM | CCC(=C(c1ccc(O)cc1)c1ccc(OCCNC(=O)CCN2CCN(CCNc3cccc4c3C(=O)N(C3CCC(=O)NC3=O)C4=O)CC2)cc1)c1ccc(O)cc1 (stereo not drawn) [SIAIS208172, N-(2-(4-(1,2-bis(4-hydroxyphenyl)but-1-en-1-yl)phenoxy)ethyl)-3-(4-(2-((2-(2,6-dioxopiperidin-3-yl)-1,3-dioxoisoindolin-4-yl)amino)ethyl)piperazin-1-yl)propanamide]
< 200 nM | Cc1ncsc1-c1ccc(CNC(=O)[C@@H]2C[C@@H](O)CN2C(=O)[C@@H](NC(=O)CCc2ccc(CCC(=O)N(C)CCOc3ccc(/C(=C(/CCCl)c4ccccc4)c4ccccc4)cc3)cc2)C(C)(C)C)cc1 [SIAIS208125, (2S,4R)-1-((S)-2-(3-(4-(3-((2-(4-((Z)-4-chloro-1,2-diphenylbut-1-en-1-yl)phenoxy)ethyl)(methyl)amino)-3-oxopropyl)phenyl)propanamido)-3,3-dimethylbutanoyl)-4-hydroxy-N-(4-(4-methylthiazol-5-yl)benzyl)pyrrolidine-2-carboxamide]
< 100 nM | Cc1ncsc1-c1ccc(CNC(=O)[C@@H]2C[C@@H](O)CN2C(=O)[C@@H](NC(=O)CCc2ccc(CCC(=O)NCCOc3ccc(C(=C(CCCl)c4ccccc4)c4ccc(O)cc4)cc3)cc2)C(C)(C)C)cc1 [SIAIS208127, (2S,4R)-1-((S)-2-(3-(4-(3-((2-(4-(4-chloro-1-(4-hydroxyphenyl)-2-phenylbut-1-en-1-yl)phenoxy)ethyl)amino)-3-oxopropyl)phenyl)propanamido)-3,3-dimethylbutanoyl)-4-hydroxy-N-(4-(4-methylthiazol-5-yl)benzyl)pyrrolidine-2-carboxamide]
< 50 nM | CCC(=C(c1ccc(O)cc1)c1ccc(OCCNC(=O)CCCCCCCCCC(=O)N[C@H](C(=O)N2C[C@H](O)C[C@H]2C(=O)NCc2ccc(-c3scnc3C)cc2)C(C)(C)C)cc1)c1ccc(O)cc1 [SIAIS208169, N1-(2-(4-(1,2-bis(4-hydroxyphenyl)but-1-en-1-yl)phenoxy)ethyl)-N11-((S)-1-((2S,4R)-4-hydroxy-2-((4-(4-methylthiazol-5-yl)benzyl)carbamoyl)pyrrolidin-1-yl)-3,3-dimethyl-1-oxobutan-2-yl)undecanediamide]
< 200 nM | CN(CCOc1ccc(/C(=C(/CCCl)c2ccccc2)c2ccccc2)cc1)C(=O)CCN1CCN(CCNc2cccc3c2C(=O)N(C2CCC(=O)NC2=O)C3=O)CC1 (stereo not drawn) [SIAIS208135, (Z)-N-(2-(4-(4-chloro-1,2-diphenylbut-1-en-1-yl)phenoxy)ethyl)-3-(4-(2-((2-(2,6-dioxopiperidin-3-yl)-1,3-dioxoisoindolin-4-yl)amino)ethyl)piperazin-1-yl)-N-methylpropanamide]
< 50 nM | Cc1ncsc1-c1ccc(CNC(=O)[C@@H]2C[C@@H](O)CN2C(=O)[C@@H](NC(=O)CCOCCOCCC(=O)N2CCN(CCOc3ccc(C(=C(CCCl)c4ccccc4)c4ccc(O)cc4)cc3)CC2)C(C)(C)C)cc1 [SIAIS251049, (2S,4R)-1-((S)-2-(3-(2-(3-(4-(2-(4-(4-chloro-1-(4-hydroxyphenyl)-2-phenylbut-1-en-1-yl)phenoxy)ethyl)piperazin-1-yl)-3-oxopropoxy)ethoxy)propanamido)-3,3-dimethylbutanoyl)-4-hydroxy-N-(4-(4-methylthiazol-5-yl)benzyl)pyrrolidine-2-carboxamide]
< 100 nM | O=C(CCCCNc1cccc2c1C(=O)N(C1CCC(=O)NC1=O)C2=O)NCCOc1ccc(C(=C(CCCl)c2ccccc2)c2ccc(O)cc2)cc1 (stereo not drawn) [SIAIS208144, N-(2-(4-(4-chloro-1-(4-hydroxyphenyl)-2-phenylbut-1-en-1-yl)phenoxy)ethyl)-5-((2-(2,6-dioxopiperidin-3-yl)-1,3-dioxoisoindolin-4-yl)amino)pentanamide]
< 50 nM | Cc1ncsc1-c1ccc(CNC(=O)[C@@H]2C[C@@H](O)CN2C(=O)[C@@H](NC(=O)CCOCCOCCC(=O)N(C)CCOc2ccc(/C(=C(/CCCl)c3ccccc3)c3ccccc3)cc2)C(C)(C)C)cc1 [SIAIS180023, (2S,4R)-1-((S)-2-(tert-butyl)-16-(4-((Z)-4-chloro-1,2-diphenylbut-1-en-1-yl)phenoxy)-14-methyl-4,13-dioxo-7,10-dioxa-3,14-diazahexadecanoyl)-4-hydroxy-N-(4-(4-methylthiazol-5-yl)benzyl)pyrrolidine-2-carboxamide]
